# Data as given in US6841362B1, “Melanoma differentiation associated gene-7 promoter and uses thereof” (The Trustees of Columbia University in the City of New York, priority 2000, dated 2005).
# What was measured:
# mda-7 mRNA [1] = experiment: Northern blotting of mda-7 message; assay type: cell-based, human; conditions: HO-1 cells, 24 h treatment
# Excerpt: FIGS. 5A-5B. Message and protein expression analyses of mda-7 during melanoma terminal differentiation. (FIG. 5A) Northern blotting analysis of mda-7 message expression. Total RNA was isolated from HO-1 cells that were uninduced (C) or treated with IFN-β (I), MEZ (M) or IFN-β+MEZ (I+M) and analyzed by Northern blotting. 28S RNA was used as a loading control. Mda-7 message was detected using a random primed [^32P]-labeled mda-7 cDNA probe (18). (FIG. 5B) Indirect immunofluorescence visualization of MDA-7 protein subcellular localization. Both uninduced HO-i cells (Control; A and S) and terminally differentiated (48 h IFN-β+MEZ treated; C and D) were immuno-labeled using anti-MDA-7 specific monoclonal antibody. Anti-mouse secondary antibodies conjugated with Rhodamine enabled visualization of MDA-7 protein localization (A and C) and the DNA specific dye, DAPI was used to stain nuclei (B and D). With the exception of a cell undergoing mitosis no other cells reveal MDA-7 staining in control cultures (A and B). Terminally differentiated cells in (C) and (D) show strong punctate MDA-7 staining within the nucleus (See enlargement below (C) and (D) of a single nucleus). The arrow points to the punctate bodies to which MDA-7 localizes in the nucleus and their coincidence with DAPI bright staining regions.
# Nucleic acid analysed. […]
# mda-7 mRNA [2] = experiment: RT-PCR followed by Southern blotting of mda-7 mRNA; assay type: cell-based, human; conditions: HO-1 cells, compared to IFN-β+MEZ treated samples
# Method: (FIG. 2B) Mda-7 message expression detected by Northern blotting and RT-PCR followed by Southern blotting. Total RNA from control (FIG. 2C) HO-1 cells and cells treated with IFN-β (I), MEZ (M) or IFN-β+MEZ (I+M) were analyzed by Northern blotting or RT-PCR/Southern using radiolabeled mda-7 cDNA as a probe as previously described (Jiang et al., 1993, 1995a; Kang et al., 1998a). GAPDH was used as an internal loading control.
# To determine the possible presence of trace amounts of mda-7 mRNA in response to differentiation inducer treatment (IFN-β) and in the absence of treatment, a more sensitive method of message detection was employed, i.e., RT-PCR followed by Southern blotting.
# Nucleic acid analysed. Total cytoplasmic RNA was prepared by the guanidinium-HCL extraction method followed by Northern blotting or RT-PCR analysis using previously published protocols (12, 18, 22). For Northern blots, 15 mg of RNA was denatured with glyoxal/DMSO, electrophoresed on 1% agarose gels, transferred to nylon membranes and hybridized with ^32P-dCTP labeled cDNA probes.
# C/EBP-β/LAP = experiment: Western blotting of C/EBP-β/LAP protein in whole cell lysates; assay type: cell-based, human; conditions: HO-1 cells, 24 h treatment
# Method: (§1) FIGS. 8A-8C. Protein expression pattern of the transcription factors cJun/AP-1 and C/EBP-β and their ability to transactivat the mda-7 promoter. [FIG. 8A] Whole cell lysates from HO-1 control cells (C) and those treated with IFN-β (I), MEZ (M), IFN-β+MEZ (I+M) or TPA were resolved on a 4-20% SDS-PAGE gel and transblotted onto nitrocellulose filters. Immobilized proteins were then analyzed by Western blotting using commercially available cJun/AP-1 and C/EBP-β specific antibodies. […] Equal protein loading was determined by Coomassie blue staining of a parallel gel. [FIG. 8B] […]
# (§2) Electrophoresis and immunoblotting. Equal amounts of whole cell proteins were analyzed by sodium dodecylsulfate-polyacrylamide gel electrophoresis (SDS-PAGE, 4-20% gradient gel; Novex) and electrotransferred onto ECL grade nitrocellulose (Amersham) as described previously (24). […]
# (§3) AP-1 and C/EBP families of transcription factors are responsible for mda-7 promoter activation during human melanoma differentiation. […] Western blot analyses of whole cell lysates (equal protein loading was verified by Coomassie blue staining of a parallel gel, data not shown) from uninduced HO1 cells and cultures treated for 24 h with IFN-β, MEZ, IFN-β+MEZ or TPA were analyzed using anti-cJun/AP-1, anti-C/EBP-α or anti-C/EBP-β antibodies. […]
# HO-1 cells = conditions: cited from earlier work
# FL-mda-7 promoter = FL-mda-7 promoter luciferase reporter assay, transient transfection; assay type: cell-based, human; conditions: HO-1 and MeWo cells, 48 hr treatment, relative to uninduced; IFN-β 2000 units/ml, MEZ 10 ng/ml
# Method: The effect of differentiation inducer drug treatment on full length mda-7 promoter activity. Fold induction of the FL-mda-7 promoter relative to the pGL3-Basic plasmid with or without differentiation inducer drug treatment in HO-1 (FIG. 1A) or MeWo (FIG. 1B) human melanoma cells. Luciferase assays were performed as previously described (Gopalkrishnan et al., 1999). In brief, the promoter-containing plasmids were transiently transfected into the different cell types using Superfect^R (Qiagen) according to the manufacturer's protocol. The cells were treated with differentiation inducers (IFN-β, 2000 units/ml; MEZ, 10 ng/ml; or IFN-β+MEZ, 2000 units/ml+10 ng/ml) for 48 h following transfection and assayed for luciferase activity using the Luc+Assat Kit (Promega). The SV40-p-Galactosidase plasmid was co-transfected with the luciferase constructs and used to normalize for variations in transfection efficiencies between experiments. […]
# The presumptive promoter fragment was assayed for promoter activity using a heterologous gene reporter system (pGL3-Basic, luciferase assay system, Promega). […] The transfection efficiency was determined by cotransfection with RSV-β-galactosidase (Tropics β-Gal assay kit) and the relative luciferase activity was computed after correction for variations in transfection efficiencies.
# mda-7-ARE-3'-UTR = experiment: Luciferase-mda-7-ARE-3'UTR reporter assay; assay type: cell-based, human; conditions: HO-1 cells
# Excerpt: Posttranscriptional regulation of Luciferase mRNA as a consequence of mda-7-3′ UTR addition at its 3′-end. The Luciferase expression plasmid having SV40 polyadenylation signal sequence was replaced with the 3′-UTR region (approximately 900 bp) of mda-7. […] (FIG. 3A) Mda-7 3′-UTR mediated destabilization of luciferase mRNA was computed as fold induction of luciferase enzyme activity, which is seen only when stable luciferase mRNA, is synthesized. […] (FIG. 3B) Kinetic analysis of luciferase activity (as fold-induction) of the mda-7 promoter-luciferase-ARE-3′-UTR construct as a function of time of treatment with IFN-β+MEZ. Luciferase assays were performed as described by Gopalkrishnan et al. (1999) and briefly in the legend to FIGS. 1A-1B.
# To examine the posttranscriptional regulation of mda-7 mRNA specifically during terminal differentiation of human melanoma cells, we constructed a Luciferease-mda-7-ARE-3′UTR plasmid under transcriptional control of either the FL-mda-7 promoter (FIG. 3) or the SV40 large T-antigen promoter. These plasmids were co-transfected into HO-1 cells and treated with differentiation inducers.
# mda-7 gene = experiment: Nuclear run-on assay of mda-7 transcription; assay type: cell-based, human; conditions: HO-1 cells, 24 h treatment, versus uninduced control
# Method: (FIG. 2A) Nuclear run-on assays using nuclei isolated from Control or 24 h after treatment with IFN-β, MEZ or IFN-β+MEZ, the same concentrations as indicated in FIG. 1. GAPDH was used as an internal control. In vitro transcription assays were performed as previously described (Jiang et al., 1993). […] GAPDH was used as an internal loading control.
# Transcription of the housekeeping gene, GAPDH served as an internal control.
# cJun/AP-1 = experiment: Western blotting of cJun/AP-1 protein in whole cell lysates; assay type: cell-based, human; conditions: HO-1 cells, 24 h treatment, compared to uninduced controls
# Method: as §1, §2, §3
# mda-7 mRNA [3] = experiment: Effect of cycloheximide on mda-7 mRNA stability, Northern blotting; assay type: cell-based, human; conditions: MEZ treated HO-1 cells, cycloheximide 10 μg/ml for 3 h; lesser extent in control and IFN-β treated samples
# Method: (§4) FIGS. 4A-4B. Effect of actinomycin D and cycloheximide on th half-life and stability of the mda-7 message. […] Northern blotting analyses were performed on total RNA isolated from control (C)HO-1 or cells treated with IFN-β (I), MEZ (M) or IFN-β+MEZ (I+M), at the same concentrations as in FIG. 1. Twenty-four h after exposure to the inducing agent(s), acitnomycin D (Act.D, 5 μg/ml) was added (+Act.D) for 30 minutes (30′) or one h (1′). Mda-7 expression was detected using a radiolabeled mda-7 cDNA probe as previously described (Jiang et al., 1995a). rRNA visualized by ethidium bromide was used as a loading control. (FIG. 4B) Effect of cycloheximide treatment on mda-7 mRNA stability relative to p21/mda-6 Untreated control (C)HO-1 cells or cells treated for 24 h with IFN-β (I), MEZ (M) or IFN-β+MEZ at the same concentrations as in FIGS. 1A-1B. After 24 h induction, cells were treated with or without cycloheximide (10 μg/ml) for 3 h and total RNA was isolated and analyzed by Northern blotting. Mda-7 expression was detected using a radiolabeled mda-7 cDNA probe (Jiang et al., 1995a). The blot was allowed to decay for 3 months, and then reprobed using a radiolabeled probe against a p21/mda-6 cDNA (Jiang et al., 1995b). rRNA visualized by ethidium bromide was used as a loading control. […]
# p21/Waf1/Cip1/mda-6 = experiment: Effect of cycloheximide on p21/mda-6 message, Northern blotting; assay type: cell-based, human; conditions: HO-1 cells, cycloheximide 10 μg/ml for 3 h
# Method: as §4
# mda-7 promoter = mda-7 promoter activity on IL-6 treatment; assay type: cell-based; conditions: cells treated with IL-6, unpublished data
# Method: It appears that C/EBP-B/LAP binding sites at a distance from the TATA element are responsible for mda-7 expression in terminally differentiated human melanoma cells. Another line of evidence supporting the involvement of the C/EBP gene family in melanoma terminal differentiation is apparent from increased levels of C/EBP-B/LAP protein in HO-1 cells as early as 24 h after treatment with IFN-β+MEZ when compared to cells treated with IFN-β, MEZ or TPA. The transcription factor C/EBP is a heat-stable, sequence-specific DNA-binding protein first purified from rat liver nuclei (39). C/EBP regulates gene expression in a variety of tissues including liver, adipose, lung and intestine (40). This transcription factor appears to function exclusively in differentiated and growth-arrested cells (40). […] It is the ratio of LIP/LAP that is important in C/EBP-mediated gene expression. In the case of terminally differentiated HO-1 melanoma cells, we were unable to detect any LIP protein. The present studies provide evidence that the C/EBP gene family members, C/EBP-B/LAP in particular, play a major role during melanoma terminal differentiation. C/EBP-a and -B can both directly induce the mda-7 promoter as shown by ectopic expression analyses. […]
compound,measurement,setting,value
"C=C(C)[C@@]12O[C@@]3(c4ccccc4)O[C@@H]1[C@@H]1[C@@H]4O[C@]4(CO)[C@@H](O)[C@]4(O)C(=O)C(C)=C[C@H]4[C@@]1(O3)[C@H](C)[C@H]2OC(=O)/C=C/C=C/c1ccccc1 [MEZ, mezerein]",mda-7 message by Northern blotting,mda-7 mRNA [1],Quantitatively less
same,mda-7 mRNA by RT-PCR,mda-7 mRNA [2],lower levels
same,level of C/EBP-β/LAP protein,C/EBP-β/LAP,approximately 3 fold
same,growth suppression and differentiation,HO-1 cells,reversible
same,activity of the FL-mda-7 promoter (luciferase),FL-mda-7 promoter,only small changes
same,luciferase enzyme activity of Luciferase-mda-7-ARE-3'UTR construct,mda-7-ARE-3'-UTR,minimal
same,rate of mda-7 transcription,mda-7 gene,the same
CCCCCCCCCCCCCC(=O)O[C@@H]1[C@@H](C)[C@@]2(O)[C@@H](C=C(CO)C[C@]3(O)C(=O)C(C)=C[C@@H]23)[C@@H]2C(C)(C)[C@]12OC(C)=O [TPA],level of cJun/AP-1 protein,cJun/AP-1,only marginally increased
C[C@@H]1C[C@@H]([C@H](O)CC2CC(=O)NC(=O)C2)C(=O)[C@@H](C)C1 [cycloheximide],accumulation of mda-7 mRNA,mda-7 mRNA [3],visibly increased
same,p21/mda-6 message accumulation,p21/Waf1/Cip1/mda-6,does not show message accumulation
IL-6: potent inducer of NF-IL6,mda-7 promoter activity,mda-7 promoter,induced
